Among the data in ChEMBL document CHEMBL4371049, “Semi-synthesis and anti-tumor activity of novel 25-OCH3-PPD derivatives incorporating aromatic moiety” (Bioorg Med Chem Lett, 2019) are IC50 values, retold here.

Common to all, as to type: functional, cell-based
The subject of one test is MCF7. Put plainly: Antiproliferative activity against human MCF7 cells after 48 hrs by MTT assay. To be noted: MCF7, 48 h. Background: Tetrazolium assays rely on reduction of a dye to a coloured formazan, in cell work by metabolically active cells.
The next test has as its system PC-3. Put plainly: Antiproliferative activity against human PC3 cells after 48 hrs by MTT assay. To be noted: PC-3, 48 h.
The subject of the next test is DU-145. Put plainly: Antiproliferative activity against human DU145 cells after 48 hrs by MTT assay. To be noted: DU-145, 48 h.
In another test the test system is BGC-823. Put plainly: Antiproliferative activity against human BGC823 cells after 48 hrs by MTT assay. As to conditions: BGC-823, 48 h.
The test system of the next test is HepG2. Put plainly: Antiproliferative activity against human HepG2 cells after 48 hrs by MTT assay. To be noted: HepG2, 48 h.

For orientation: IC50 means the midpoint of a concentration-inhibition curve.

With `O=c1[nH]cc(F)c(=O)[nH]1` [FLUOROURACIL], the IC50 with MCF7 came to 22.6 µM; with PC-3, 23.1 µM; in the test on DU-145 it was 25.3 µM; in the test with BGC-823, 24.8 µM.

On to `COC(C)(C)CCC[C@@](C)(O)[C@H]1CC[C@]2(C)[C@@H]1[C@H](OC(=O)/C=C/c1ccc(Cl)cc1)C[C@@H]1[C@@]3(C)CC[C@H](OC(=O)/C=C/c4ccc(Cl)cc4)C(C)(C)[C@@H]3CC[C@]12C`, for which the IC50 with MCF7, with PC-3, in the test on DU-145, with BGC-823 and in the test on HepG2 was greater than 50 µM throughout.

Turning to `COC(C)(C)CCC[C@@](C)(O)[C@H]1CC[C@]2(C)[C@@H]1[C@H](OC(=O)c1ccccc1I)C[C@@H]1[C@@]3(C)CC[C@H](OC(=O)c4ccccc4I)C(C)(C)[C@@H]3CC[C@]12C`, the IC50 in the test on MCF7, in the test on PC-3, in the test with DU-145, in the test on BGC-823 and in the test with HepG2 was greater than 50 µM each time.

With `COC(C)(C)CCC[C@@](C)(O)[C@H]1CC[C@]2(C)[C@@H]1[C@H](O)C[C@@H]1[C@@]3(C)CC[C@H](OC(=O)c4cccc(F)c4)C(C)(C)[C@@H]3CC[C@]12C`, the IC50 worked out at 6.4 µM with MCF7; 13.5 µM with PC-3; 8.6 µM in the test with DU-145; 5.3 µM in the test with BGC-823; 10.3 µM in the test on HepG2.

As for `COC(C)(C)CCC[C@@](C)(O)[C@H]1CC[C@]2(C)[C@@H]1[C@H](OC(=O)c1cc(C)cc(C)c1)C[C@@H]1[C@@]3(C)CC[C@H](OC(=O)c4cc(C)cc(C)c4)C(C)(C)[C@@H]3CC[C@]12C`, the IC50 in the test on MCF7, in the test with PC-3, in the test on DU-145, in the test on BGC-823 and in the test on HepG2 was greater than 50 µM throughout.

Take `COC(C)(C)CCC[C@@](C)(O)[C@H]1CC[C@]2(C)[C@@H]1[C@H](O)C[C@@H]1[C@@]3(C)CC[C@H](OC(=O)c4cc(C)cc(C)c4)C(C)(C)[C@@H]3CC[C@]12C`: the half-inhibitory concentration (IC50) in the test with MCF7 was 48.2 µM; in the test on PC-3, greater than 50 µM; in the test with DU-145, greater than 50 µM; in the test with BGC-823, greater than 50 µM; in the test on HepG2, greater than 50 µM.

Regarding `COC(C)(C)CCC[C@@](C)(O)[C@H]1CC[C@]2(C)[C@@H]1[C@H](OC(=O)c1ccccc1)C[C@@H]1[C@@]3(C)CC[C@H](OC(=O)c4ccccc4)C(C)(C)[C@@H]3CC[C@]12C`, the IC50 with MCF7, in the test with PC-3, with DU-145, in the test with BGC-823 and with HepG2 was greater than 50 µM throughout.

With `COC(C)(C)CCC[C@@](C)(O)[C@H]1CC[C@]2(C)[C@@H]1[C@H](OC(=O)c1cc(F)ccc1Br)C[C@@H]1[C@@]3(C)CC[C@H](OC(=O)c4cc(F)ccc4Br)C(C)(C)[C@@H]3CC[C@]12C`, the half-inhibitory concentration (IC50) in the test on MCF7, in the test on PC-3, in the test with DU-145, with BGC-823 and with HepG2 was greater than 50 µM throughout.

Consider `COC(C)(C)CCC[C@@](C)(O)[C@H]1CC[C@]2(C)[C@@H]1[C@H](OC(=O)c1ccccc1[N+](=O)[O-])C[C@@H]1[C@@]3(C)CC[C@H](OC(=O)c4ccccc4[N+](=O)[O-])C(C)(C)[C@@H]3CC[C@]12C`, for which the IC50 was 37.2 µM with MCF7; greater than 50 µM with PC-3; 29.7 µM in the test with DU-145; 48.6 µM in the test with BGC-823; greater than 50 µM in the test on HepG2.

On to `COC(C)(C)CCC[C@@](C)(O)[C@H]1CC[C@]2(C)[C@@H]1[C@H](O)C[C@@H]1[C@@]3(C)CC[C@H](OC(=O)/C=C/c4ccccc4)C(C)(C)[C@@H]3CC[C@]12C`, for which the IC50 in the test on MCF7 was 35 µM; with PC-3 it was 37.2 µM; in the test on DU-145, 40.1 µM; in the test on BGC-823, 28.7 µM; in the test on HepG2, 26.4 µM.

Take `COC(C)(C)CCC[C@@](C)(O)[C@H]1CC[C@]2(C)[C@@H]1[C@H](O)C[C@@H]1[C@@]3(C)CC[C@H](OC(=O)c4ccc(I)cc4)C(C)(C)[C@@H]3CC[C@]12C`: the IC50 is 46.3 µM in the test on MCF7; greater than 50 µM in the test on PC-3; 31.8 µM with DU-145; greater than 50 µM in the test with BGC-823; greater than 50 µM with HepG2.

As to `COC(C)(C)CCC[C@@](C)(O)[C@H]1CC[C@]2(C)[C@@H]1[C@H](OC(=O)/C=C/c1ccc(F)cc1)C[C@@H]1[C@@]3(C)CC[C@H](OC(=O)/C=C/c4ccc(F)cc4)C(C)(C)[C@@H]3CC[C@]12C`, the IC50 in the test on MCF7 was greater than 50 µM; in the test on PC-3, greater than 50 µM; in the test on DU-145, 34.6 µM; with BGC-823 it was greater than 50 µM; in the test with HepG2 it was 41.8 µM.

Take `COC(C)(C)CCC[C@@](C)(O)[C@H]1CC[C@]2(C)[C@@H]1[C@H](O)C[C@@H]1[C@@]3(C)CC[C@H](OC(=O)c4ccc(F)cc4)C(C)(C)[C@@H]3CC[C@]12C`: the IC50 with MCF7 was 9.4 µM; in the test on PC-3 it was 15 µM; in the test on DU-145, 13.8 µM; in the test on BGC-823, 12.7 µM; in the test on HepG2, 8.5 µM.

For `COC(C)(C)CCC[C@@](C)(O)[C@H]1CC[C@]2(C)[C@@H]1[C@H](OC(=O)c1ccc(F)cc1F)C[C@@H]1[C@@]3(C)CC[C@H](OC(=O)c4ccc(F)cc4F)C(C)(C)[C@@H]3CC[C@]12C`, the IC50 was greater than 50 µM in the test with MCF7; 43.2 µM in the test with PC-3; greater than 50 µM in the test on DU-145; 37.7 µM in the test on BGC-823; greater than 50 µM in the test on HepG2.

Consider `COC(C)(C)CCC[C@@](C)(O)[C@H]1CC[C@]2(C)[C@@H]1[C@H](O)C[C@@H]1[C@@]3(C)CC[C@H](OC(=O)c4ccc([N+](=O)[O-])cc4)C(C)(C)[C@@H]3CC[C@]12C`, for which the half-inhibitory concentration (IC50) was determined as 25.3 µM with MCF7; 16.7 µM in the test on PC-3; 19.2 µM with DU-145; 17.4 µM in the test with BGC-823; 20.6 µM in the test on HepG2.

For the molecule `COC(C)(C)CCC[C@@](C)(O)[C@H]1CC[C@]2(C)[C@@H]1[C@H](O)C[C@@H]1[C@@]3(C)CC[C@H](OC(=O)c4ccccc4[N+](=O)[O-])C(C)(C)[C@@H]3CC[C@]12C`, the IC50 worked out at 8.6 µM in the test with MCF7; 14.8 µM in the test on PC-3; 11.5 µM with DU-145; 7.9 µM with BGC-823; 12 µM in the test with HepG2.

Turning to `COC(C)(C)CCC[C@@](C)(O)[C@H]1CC[C@]2(C)[C@@H]1[C@H](O)C[C@@H]1[C@@]3(C)CC[C@H](OC(=O)c4ccccc4I)C(C)(C)[C@@H]3CC[C@]12C`, the IC50 turned out to be 33.4 µM in the test on MCF7; 46.5 µM with PC-3; 28.1 µM in the test on DU-145; 28.7 µM in the test with BGC-823; 39.2 µM with HepG2.

In the case of `COC(C)(C)CCC[C@@](C)(O)[C@H]1CC[C@]2(C)[C@@H]1[C@H](OC(=O)c1ccccc1C)C[C@@H]1[C@@]3(C)CC[C@H](O)C(C)(C)[C@@H]3CC[C@]12C`, the IC50 in the test with MCF7, in the test with PC-3, in the test on DU-145, in the test with BGC-823 and in the test on HepG2 was greater than 50 µM throughout.
